The test system of assay [1] is “blank”-transfected COS-7 cells. Description: cAMP formation in control COS-7 cells. It is filed as cell-based. The settings on record: 1 μM. As for the experimental part:
(§1) The entire coding region of the cDNAs of 5-HT4(a), 5-HT4(b), 5-HT4(c) and 5-T4(d) was subcloned into a mammalian expression vector pRC/CMV (Invitrogen, Carlsbad, Calif.). The transfections were carried out using polyethyleneimine (PEI) as described in Boussif et al. (1995). The cells were transfected using a mixture of DNA and of PEI in a ratio of 20 μmol of PEI/mg of DNA in 0.9% NaCl. For the radioligand binding assays, the COS-7 cells were seeded into culture flasks of 1.5×10^4 mm^2 one day before the transfection, at a density of 1×10^7 cells/flask, incubated for six hours with plasmid DNA (150 μg/flask) and collected 48 hours after transfection. For the measurement of cAMP formation, the COS-7 cells were seeded onto twelve-well plates one day before transfection, at a density of 5×10^5 cells/well, incubated for six hours with plasmid DNA (4 to 8 μg/well according to the experiments) and assayed 24 hours after the transfection. The cells transfected with the receptor 5-HT4 cDNA constructs were compared with the “blank”-transfected cells, which were exposed to the unmodified pRC/CMV plasmid.
(§2) To measure intracellular cAMP accumulation, the transiently transfected COS-7 cells were incubated, 24 hours after transfection, in Dulbecco's modified Eagle medium (DMEM) containing 5 mM theophylline, 10 mM HEPES and 10 μM pargyline for 15 minutes at 37° C., in the presence of 5% CO2. […] The reaction was stopped by aspiration of the medium and addition of 500 μl of ice-cold ethanol. After one hour at room temperature, the cells were scraped, and everything was collected and freeze-dried. The pellet was resuspended in 350 μl of PBS and centrifuged for 5 min at 300 g. The cAMP was quantified in the supernatant using a radioimmunological assay (E.R.I.A. assay kit from Pasteur Diagnostics 79830). Student's t tests were carried out using the program Quick TEst.
(Cyclic AMP is a second messenger, typically raised through Gs and lowered through Gi signalling.)

For assay [2], the target named is T1, receptor 5-HT4(a) (Homo sapiens, UniProt Q13639).
T1 construct: The entire coding region of the cDNAs of 5-HT4(a), 5-HT4(b), 5-HT4(c) and 5-T4(d) was subcloned; expressed in transfected cells; host or cells: COS-7 cells, transient, pRC/CMV vector
Kind of assay: cAMP formation in transiently transfected COS-7 cells. It is filed as cell-based. The settings on record: COS-7, 1 μM agonist, 15 minutes. As for the experimental part:
as §1, §2

In assay [3] the target is T1, receptor 5-HT4(a). Description: [3H]GR113808 radioligand binding, membranes of transiently transfected COS-7 cells. As to the method: as §1
(§3) Each flask of cells intended for the radioligand binding assays was washed twice with a phosphate buffer (PBS). The cells were then scraped, collected and centrifuged at 300 g for five minutes. The pellet was resuspended in 2.5 ml of ice-cold HEPES buffer (50 mM, pH 7.4) and homogenized with an Ultraturax tissue grinder. The lysate was then centrifuged at 40,000 g for 20 minutes at 4° C. The resulting pellet was resuspended in 15 volumes of HEPES buffer (50 mM, pH 7.4). The membrane preparations were maintained in ice and used within two hours for radioligand binding assays. The protein concentrations were determined by the method of Lowry et al., 1951, using bovine serum albumin as standard.
(§4) The saturation studies were performed using [^3H] GR113808 at 9 different concentrations ranging from 0.01 to 3.5 nM. The tubes were incubated at 25° C. for 30 minutes. The reaction-was stopped by rapid filtration, under vacuum, through Whatman GF/B filter paper using the Brandel 48R cell harvester. The filters were presoaked in a solution of PEI (0.1%) to reduce the binding to the filters. The filters were then washed with an ice-cold buffer (50 mM Tris-HCl, pH 7.4) and placed in 4 ml of “ready safe” scintillation cocktail (Beckman, Fullerton, Calif.) overnight. The radioactivity was measured using a Beckman LS 6500 C liquid scintillation counter. The binding data were analysed by computer-assisted nonlinear regression analysis (Graph Pad Prism Program, Graph Pad Software, Inc., San Diego, Calif.).
(§5) The experiments correspond to the competition of various compounds for [^3H]GR113808 binding to membranes of transiently transfected COS-7 cells. […] The estimations of affinity are given as Ki values in nM, and are determined from IC50 values obtained by computer-assisted nonlinear curve analysis (GraphPad, Prism Software). The Ki values are representative of at least two determinations.

Another assay has as its target T2, receptor 5-HT4(b) (Homo sapiens, UniProt Q13639).
T2 construct: The entire coding region of the cDNAs of 5-HT4(a), 5-HT4(b), 5-HT4(c) and 5-T4(d) was subcloned; expressed in transfected cells; host or cells: COS-7 cells, transient, pRC/CMV vector; cDNA amplified from human brain and ileum RNA
The assay is described as above. As to the method:
as §1, §3, §4, §5

The target in assay [4] is T3, receptor 5-HT4(c) (Homo sapiens, UniProt Q13639). The assay is described as above. More on the design: The entire coding region of the cDNAs of 5-HT4(a), 5-HT4(b), 5-HT4(c) and 5-T4(d) was subcloned; expressed in transfected cells; host or cells: COS-7 cells, transient, pRC/CMV vector; cDNA amplified from human brain and ileum RNA. As to the method: as §1, §3, §4, §5

For assay [5], the target named is T4, receptor 5-HT4(d) (Homo sapiens, UniProt Q13639). Described as above. More on the design: The entire coding region of the cDNAs of 5-HT4(a), 5-HT4(b), 5-HT4(c) and 5-T4(d) was subcloned; expressed in transfected cells; host or cells: COS-7 cells, transient, pRC/CMV vector; cDNA amplified from human brain and ileum RNA. As for the experimental part:
as §1, §3, §4, §5

Assay [6] relates to cells expressing the isoforms of the receptor 5-HT4. Kind of assay: cAMP formation in transiently transfected COS-7 cells, statement for all isoforms together. It is filed as cell-based, human. As for the experimental part:
The entire coding region of the cDNAs of 5-HT4(a), 5-HT4(b), 5-HT4(c) and 5-T4(d) was subcloned into a mammalian expression vector pRC/CMV (Invitrogen, Carlsbad, Calif.). The transfections were carried out using polyethyleneimine (PEI) as described in Boussif et al. (1995). The cells were transfected using a mixture of DNA and of PEI in a ratio of 20 μmol of PEI/mg of DNA in 0.9% NaCl. […] The cells transfected with the receptor 5-HT4 cDNA constructs were compared with the “blank”-transfected cells, which were exposed to the unmodified pRC/CMV plasmid. […] The reaction was stopped by aspiration of the medium and addition of 500 μl of ice-cold ethanol. After one hour at room temperature, the cells were scraped, and everything was collected and freeze-dried. The pellet was resuspended in 350 μl of PBS and centrifuged for 5 min at 300 g. The cAMP was quantified in the supernatant using a radioimmunological assay (E.R.I.A. assay kit from Pasteur Diagnostics 79830). Student's t tests were carried out using the program Quick TEst.

Assay [7] concerns the target T3, receptor 5-HT4(c). Kind of assay: [3H]GR113808 saturation binding, membranes of stably transfected CHO cells. The note with it: 30 minutes at 25° C., read-out: Kd, saturation analysis. The arrangement: The entire coding region of the cDNAs of 5-HT4(a), 5-HT4(b), 5-HT4(c) and 5-T4(d) was subcloned; expressed in transfected cells; pRC/CMV vector; cDNA amplified from human brain and ileum RNA. As to the method:
(§6) The entire coding region of the 5-HT4(c) and 5-HT4(d) cDNAs was subcloned into a mammalian expression vector pRC/CMV (Invitrogen, Carlsbad, Calif.). The CHO cells are stably transfected by electroporation (250 V, 960 μF) with the plasmid PRc/CMV, containing the clone h5-HT4(c) or h5-HT4(d), cleaved with the restriction enzyme Kpn1 (10 μg of plasmid for 10^7 cells). The cells are cultured in HAM-F12 medium supplemented with 10% of heat-inactivated foetal calf serum. […] Twelve days later, the clones are individualized and cultured in 12-well plates. Clone selection is carried out by studying the stimulation of the cAMP formed in the presence of 1 μM serotonin. […]
(§7) Each flask of cells intended for the radioligand binding assays was washed twice with a phosphate buffer (PBS). […] The protein concentrations were determined by the method of Lowry et al., 1951, using bovine serum albumin as standard.
(§8) The radioligand binding studies were carried out in 500 μl of buffer (50 mM HEPES, pH 7.4) [lacuna] […] The filters were then washed with an ice-cold buffer (50 mM Tris-HCl, pH 7.4) and placed in 4 ml of “ready safe” scintillation cocktail (Beckman, Fullerton, Calif.) overnight. The radioactivity was measured using a Beckman LS 6500 C liquid scintillation counter. […]

Assay [8] addresses T4, receptor 5-HT4(d). The description is as above. More on the design: The entire coding region of the cDNAs of 5-HT4(a), 5-HT4(b), 5-HT4(c) and 5-T4(d) was subcloned; expressed in transfected cells; pRC/CMV vector; cDNA amplified from human brain and ileum RNA. The note with it: 30 minutes at 25° C., read-out: Kd, saturation analysis. As to the method: as §6, §7, §8
Setting [9] is: 5-HT4(a), COS-7 membranes, [3H]GR113808 at 50% of Kd, read-out: Ki, competition for [3H]GR113808 binding.
[10] abbreviates: 5-HT4(b), COS-7 membranes, [3H]GR113808 at 50% of Kd, read-out: Ki, competition for [3H]GR113808 binding.
The mark [11] stands for this setting: 5-HT4(c), COS-7 membranes, [3H]GR113808 at 50% of Kd, read-out: Ki, competition for [3H]GR113808 binding.
Setting [12] is: 5-HT4(d), COS-7 membranes, [3H]GR113808 at 50% of Kd, read-out: Ki, competition for [3H]GR113808 binding.
The mark [13] stands for this setting: read-out: Ki, competition for [3H]GR113808 binding.

Where a name gives a salt, the structure may show the parent alone. Read-outs that look alike come from different tables or passages of the source.

T4 sequence (Q13639 1-360 isoform Q13639-3): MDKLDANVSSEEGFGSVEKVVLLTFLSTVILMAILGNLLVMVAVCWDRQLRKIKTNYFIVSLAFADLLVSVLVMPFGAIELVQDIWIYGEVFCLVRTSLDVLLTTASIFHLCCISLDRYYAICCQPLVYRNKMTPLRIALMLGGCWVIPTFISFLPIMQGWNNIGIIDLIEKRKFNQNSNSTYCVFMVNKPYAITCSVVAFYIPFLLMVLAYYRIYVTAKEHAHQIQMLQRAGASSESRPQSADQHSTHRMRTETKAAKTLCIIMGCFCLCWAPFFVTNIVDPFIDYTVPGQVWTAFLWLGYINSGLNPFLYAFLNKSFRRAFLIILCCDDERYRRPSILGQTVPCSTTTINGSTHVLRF
T1 sequence (Q13639 1-387 isoform Q13639-2): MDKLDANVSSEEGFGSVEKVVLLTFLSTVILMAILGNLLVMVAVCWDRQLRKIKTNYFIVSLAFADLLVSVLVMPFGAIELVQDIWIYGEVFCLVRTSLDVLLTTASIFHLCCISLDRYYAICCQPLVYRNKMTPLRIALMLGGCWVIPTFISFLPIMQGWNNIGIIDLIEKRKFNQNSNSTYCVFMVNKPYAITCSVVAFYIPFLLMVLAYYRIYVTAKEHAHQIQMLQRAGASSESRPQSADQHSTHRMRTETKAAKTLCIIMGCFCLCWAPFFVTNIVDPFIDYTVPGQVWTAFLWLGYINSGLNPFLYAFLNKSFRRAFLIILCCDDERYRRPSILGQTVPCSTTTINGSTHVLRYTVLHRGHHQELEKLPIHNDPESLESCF
T3 sequence (Q13639 1-380 isoform Q13639-4): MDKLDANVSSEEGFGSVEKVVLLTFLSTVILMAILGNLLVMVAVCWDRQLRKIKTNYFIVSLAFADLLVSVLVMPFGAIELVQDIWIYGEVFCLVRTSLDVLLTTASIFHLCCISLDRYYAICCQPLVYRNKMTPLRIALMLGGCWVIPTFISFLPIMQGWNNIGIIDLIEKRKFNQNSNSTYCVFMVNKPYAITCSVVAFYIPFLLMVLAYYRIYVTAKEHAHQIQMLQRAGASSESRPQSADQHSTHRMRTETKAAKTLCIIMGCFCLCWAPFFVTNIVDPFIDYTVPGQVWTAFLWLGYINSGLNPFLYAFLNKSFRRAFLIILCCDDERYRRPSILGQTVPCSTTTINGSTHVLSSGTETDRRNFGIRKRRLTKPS
T2 sequence (Q13639 whole entry): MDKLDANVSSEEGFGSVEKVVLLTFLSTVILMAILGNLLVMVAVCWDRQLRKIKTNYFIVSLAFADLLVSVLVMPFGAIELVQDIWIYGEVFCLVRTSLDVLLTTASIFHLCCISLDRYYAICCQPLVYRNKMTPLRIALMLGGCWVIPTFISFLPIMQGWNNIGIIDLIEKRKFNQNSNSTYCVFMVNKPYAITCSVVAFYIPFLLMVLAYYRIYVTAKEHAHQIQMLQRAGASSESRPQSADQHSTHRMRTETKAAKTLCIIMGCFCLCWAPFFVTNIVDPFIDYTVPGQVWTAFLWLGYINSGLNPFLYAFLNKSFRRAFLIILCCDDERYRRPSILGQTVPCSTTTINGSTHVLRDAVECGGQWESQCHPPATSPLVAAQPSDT

Take `COc1cc(N)c(Cl)cc1C(=O)NC1CCN2CCCC1C2` (single isomer, unassigned; (+)) [Renzapride, (+)endo-4-amino-5-chloro-2-methoxy-N-(1-azabicyclo[3.3.1]non-4-yl)benzamide, hydrochloride]: in assay [1], the “effect on basal adenylate cyclase activity / basal cAMP levels” value was “no significant effect”. In addition, the “increase in cAMP concentration” value at receptor 5-HT4(a) [2] was found to be 56%.
One may read the Ki as a measure of affinity in units of concentration, obtained from inhibition or displacement. As to `COc1ccc2[nH]cc(CCN)c2c1` [5-MeOT, 5-methoxytryptamine], the inhibition constant Ki at receptor 5-HT4(a) [3] (setting [9]) worked out at 2080 ± 508 nM; at receptor 5-HT4(b) (setting [10]), 2440 ± 510 nM; at receptor 5-HT4(c) [4] (setting [11]), 1020 ± 236 nM; on receptor 5-HT4(d) [5] (setting [12]), 553 ± 149 nM.
In the case of `CCn1c(=O)n(C(=O)N[C@H]2C[C@H]3CC[C@@H](C2)N3C)c2ccccc21` [BIMU1], the inhibition constant (Ki) turned out to be 373 ± 119 nM at receptor 5-HT4(a) [3], 123 ± 9 nM on receptor 5-HT4(b), 66 ± 8.37 nM at receptor 5-HT4(c) [4] and 38.8 ± 12 nM at receptor 5-HT4(d) [5].
For the molecule `Cn1cc(C(=O)OCC2CCN(CCNS(C)(=O)=O)CC2)c2ccccc21` [GR113808, ([1-[2-(methylsulphonyl)amino]ethyl]-4-piperidyl)methyl 1-methyl-1H-indole-3-carboxylate], the Ki stood at 0.33 ± 0.033 nM at receptor 5-HT4(a) [3] (setting [9]), 0.53 ± 0.1 nM on receptor 5-HT4(b) (setting [10]), 0.41 ± 0.13 nM on receptor 5-HT4(c) [4] (setting [11]) and 0.078 nM on receptor 5-HT4(d) [5] (setting [12]).
As to `COc1cc(N)c(Cl)cc1C(=O)OCCN1CCCCC1` [ML10302, 2-(1-piperidyl)ethyl 4-amino-5-chloro-2-methoxy-benzoate], the “stimulatory effect on cAMP as % of the stimulatory effect of 5-HT” value in assay [6] (1 μM, COS-7 cells expressing the isoforms of the receptor 5-HT4) is 28 to 34%. The “antagonism of the capacity of 5-HT (1 μM) to increase basal cAMP levels” value in [6] (preincubation with 1 μM prior to 5-HT, COS-7 cells expressing the isoforms) is “significantly antagonizes”. Further, in [1], the “effect on basal adenylate cyclase activity / basal cAMP levels” value is given as “no significant effect”.
For the molecule `COc1cc(N)c(Cl)cc1C(=O)NC1CN2CCC1CC2` (stereo not drawn) [Zacopride, 4-amino-5-chloro-2-methoxy-N-(1-azabicyclo-[2,2,2]octo-3-yl)benzamide, hydrochloride], the Ki on receptor 5-HT4(a) [3] (setting [9]) was 7750 ± 1620 nM; at receptor 5-HT4(b) (setting [13]), 11500 ± 950 nM; on receptor 5-HT4(c) [4] (setting [13]) it was 10600 ± 2160 nM; at receptor 5-HT4(d) [5] (setting [12]) it was 3600 ± 1840 nM.
Regarding `Cn1cc(C(=O)OCC2CCN(CCNS(C)(=O)=O)CC2)c2ccccc21` [[^3H]GR113808], the Kd was 0.23 ± 0.06 nM at receptor 5-HT4(a) [3] (5-HT4(a), COS-7 membranes, 30 minutes at 25° C., read-out: Kd, saturation analysis); 0.62 ± 0.05 nM on receptor 5-HT4(b) (5-HT4(b), COS-7 membranes, 30 minutes at 25° C., read-out: Kd, saturation analysis); 0.42 ± 0.04 nM on receptor 5-HT4(c) [7]; 0.23 ± 0.03 nM at receptor 5-HT4(d) [8]; 0.3 ± 0.08 nM at receptor 5-HT4(c) [4] (5-HT4(c), COS-7 membranes, 30 minutes at 25° C., read-out: Kd, saturation analysis); 0.14 ± 0.05 nM at receptor 5-HT4(d) [5] (5-HT4(d), COS-7 membranes, 30 minutes at 25° C., read-out: Kd, saturation analysis).

These data come from patent US6506580B1, “Splice variants for human 5-HT4 serotonin receptor and their applications, in particular for screening” (Institut National de la Sante et de la Recherche Medicale …, priority 1997, dated 2003).
